Experimental data: US12702702B2, “Application of Caerin 1.1/1.9 combined with anti-CD47 antibody in preparing drug for treating melanoma” (WNL BIOMED TECH PTY. LTD., priority 2022, dated 2026)
Ends that are not written are not given here.

How the values were obtained:
B16 cells [1] = experiment: MTT assay for B16 cell survival; assay type: cell-based; details: B16 cells cultured overnight with F1/F3 at 0-20 μg/mL, MTT kit
Method: (§1) • 1. An MTT assay was used to detect cell survival condition: 7×10^4 B16 cells per well were cultured overnight with F1/F3 at different concentrations (0, 6, 8, 10, 12, 14, 16, 18, 20 μg/mL) in 4 duplicate wells, and the cell survival condition was detected by using an MTT kit (a product number: C0009M) and an IC50 value was calculated by drawing. Latest results of two independent experiments were shown. • 2. Detection of cell apoptosis: it was divided into a test group and a control group, and the B16 cells were cultured with a complete medium (composed of 1640 basic medium+fetal bovine serum from South American+double antibody (mixed with penicillin and streptomycin at a ratio of 1:1) at a volume ratio of 90:9:1), where Caerin 1.1/Caerin 1.9 was added to the test group with a final concentration of 10 μg/mL, and P3 was added to the control group with a same final concentration of 10 μg/mL. The cells were cultured overnight in a 5% CO2 incubator at 37° C., and their apoptosis conditions were detected by an apoptosis kit (an Annexin V-EGFP apoptosis detection kit, with a product number: C1067M). II. Experimental Results: • 1. In FIG. 1, A represented the cell survival condition at different concentrations, and B represented a calculated survival rate. […] In FIG. 2, A was a cell apoptosis distribution diagram, and B was a statistical analysis result.

B16 cells [2] = experiment: Apoptosis detection (Annexin V-EGFP kit) in B16 cells; assay type: cell-based; details: 10 μg/mL, cultured overnight, versus P3 control
Method: as §1

B16 cells [3] = experiment: In vivo B16 tumor model, intratumoral injection: survival time and tumor weight; parameters: species or system C57BL/6 mice; details: 30 μg injected daily for 7 days from DAY 3; alone
Method: • 1. Experiment objects: 12 C57BL/6 mice were divided into 3 groups with 4 mice in each group. • 2. Experiment method: • 2.1 Detection of tumor weight: A. Each C57BL/6 mouse was subcutaneously inoculated with 4×10^5 B16 cells, and time of tumor bearing was recorded as DAY 0. On DAY 3, the three groups were respectively injected with 100 μL of PBS solution containing 30 μg of F1/F3 (i.e., Caerin 1.1/Caerin 1.9), 100 μL of PBS solution containing 30 μg of P3, and 100 μL of PBS solution for the negative control group every day, administered for 7 consecutive days; B. a modeling method was the same as above, there were 8 mouse in each group, which were killed at DAY 13, and the tumor was taken and weighed. • 2.2 Detection of cell activity: The experimental process was the same as that in 2.1, tumor tissues were taken and treated into single cell suspensions on DAY 13 for flow staining and detected by using a flow cytometer, and selected flow antibodies were as follows: FITC-CD45.2, APC-cy7-CD3e, Percp-cy5.5-CD4, PE-cy7-CD8a, APC-cy7-B220, PE-NK1.1, PE-F4/80, Percp-cy5.5-CD11b, and FVS510 dye. […]

B16 cells [4] = experiment: Flow cytometry of tumor-infiltrating immune cells after F1/F3 injection; assay type: in vivo, C57BL/6 mice; details: DAY 13, flow cytometry
Method: • 1. Experiment objects: 12 C57BL/6 mice were divided into 3 groups with 4 mice in each group. • 2. Experiment method: • 2.1 Detection of tumor weight: A. Each C57BL/6 mouse was subcutaneously inoculated with 4×10^5 B16 cells, and time of tumor bearing was recorded as DAY 0. On DAY 3, the three groups were respectively injected with 100 μL of PBS solution containing 30 μg of F1/F3 (i.e., Caerin 1.1/Caerin 1.9), 100 μL of PBS solution containing 30 μg of P3, and 100 μL of PBS solution for the negative control group every day, administered for 7 consecutive days; B. a modeling method was the same as above, there were 8 mouse in each group, which were killed at DAY 13, and the tumor was taken and weighed. • 2.2 Detection of cell activity: The experimental process was the same as that in 2.1, tumor tissues were taken and treated into single cell suspensions on DAY 13 for flow staining and detected by using a flow cytometer, and selected flow antibodies were as follows: FITC-CD45.2, APC-cy7-CD3e, Percp-cy5.5-CD4, PE-cy7-CD8a, APC-cy7-B220, PE-NK1.1, PE-F4/80, Percp-cy5.5-CD11b, and FVS510 dye. Changes of macrophage subtypes were detected, tumor tissues were taken and treated into single cell suspensions on DAY 13 for flow staining and detected by using the flow cytometer, and selected flow antibodies were as follows: FITC-CD45.2, PE-F4/80, Percp-cy5.5-CD11b, BV421-Ly6C, and FVS510 dye. • 3. In FIG. 3, A was the survival time of Caerin 1.1/Caerin 1.9 for combined treatment of melanoma-bearing mice, and B was weighted data of tumor size of each group.

B16 cells [5] = experiment: MDSC and macrophage proportions in B16 tumor tissue by flow cytometry; assay type: in vivo, C57BL/6 mice; details: 30 μg F1/F3 daily for 7 days, tumor DAY 13, versus PBS
Method: (§2) • 1. Experiment objects: 6 C57BL/6 mice were divided into 2 groups with 3 mice in each group. • 2. Experimental process: Each C57BL/6 mouse was subcutaneously inoculated with 4×10^5 B16 cells, and time of tumor bearing was recorded as DAY 0. The two groups were injected with 100 μL of PBS solution containing 30 μg of F1/F3 (i.e., Caerin 1.1/Caerin 1.9) respectively on DAY 3; and the negative control group was injected with 100 μL of PBS solution every day for consecutive 7 days. B16 tumor tissues were taken and treated into single cell suspensions on DAY 13 for flow staining and detected by using a flow cytometer. Selected antibodies were as follows: FITC-CD45.2, Percp-cy5.5-CD11b, APC-Ly6G, BV421-Ly6c, FVS510 dye, and PE-F4/80. A modeling method was the same as above, splenic organs of mice were taken and processed into single cell suspensions on DAY 13, m-MDSC was sorted by using a flow cytometer, and four groups were set up: a PBS group, a PBS+GMCSF group, an F(F1/F3) group, and an F(F1/F3)+GMCSF group. The sorted cells were counted, each group was provided with two multiple wells, with 100,000 cells each well, 10 ng/ml of GMCSF was added to each group, and after three days of stimulating culture, the cells were detected by using the flow cytometer. Selected antibodies were as follows: FITC-CD45.2, Percp-cy5.5-CD11b, APC-Ly6G, BV421-Ly6c, FVS510 dye, and PE-F4/80. • 3. […]

m-MDSC = experiment: Sorted splenic m-MDSC, in vitro GMCSF stimulation culture; assay type: cell-based, C57BL/6 mice; details: 10 ng/ml GMCSF, three days culture, compared with the PBS group
Method: as §2

[6] = CD47 and SIRPα expression in B16 tumor tissue by flow cytometry; assay type: in vivo, C57BL/6 mice; details: DAY 13, flow cytometry
Method: (§3) • 1. Experiment objects: 21 C57BL/6 mice were divided into 3 groups with 7 mice in each group. • 2. Experiment method: A modeling method was the same as that in Experiment example 3, the experiment was divided into a PBS group, a P3 group and an F1/F3 group, tumor tissues were taken and treated into single cell suspensions on DAY 13 for flow staining and detected by using a flow cytometer, two experiments were carried out continuously, and flow antibodies were selected as follows: FITC-CD45.2, FVS510 dye, and BV421-CD47. • 3. Experimental results: This is a summary of results of two independent experiments, and the specific experimental results were shown in FIG. 9.

CD47 = experiment: as above; assay type: in vivo, C57BL/6 mice; details: DAY 13, flow cytometry
Method: as §3

B16 cells [7] = experiment: F1/F3 treatment of nude mice bearing tumor model; assay type: in vivo; details: 30 μg intratumoral for 7 days from DAY 3

## Caerin 1.1/Caerin 1.9: Caerin 1.1 and Caerin 1.9 polypeptides used together, mass ratio 1:1 (chain 1 GLLSVLGSVAKHVLPHVLPHVVPVIAEHL-NH2; chain 2 GLFGVLGSIAKHVLPHVVPVIAEKL-NH2; not fully specified; ends and bridges not checked)
B16 cells [1]
  IC50 (IC50 half lethal dose), cell survival: 11.76 µg/mL
B16 cells [2]
  apoptosis of B16 cells: significant apoptosis-inducing effect
B16 cells [3]
  tumor growth in vivo (survival time, tumor weight): effectively inhibit tumor growth
B16 cells [4]
  number of tissue-resident macrophages for inhibiting tumor immunity: decreased
B16 cells [4]; tumor tissue
  expression of INFα receptors in macrophages: increased
  number of CD8+T cells and CD4+T cells: increased
  number of inflammatory macrophages for promoting tumor immunity: increased
  number of macrophages: increased
B16 cells [5]
  proportion of MDSC, m-MDSC and PMN-MDSC: tended to decrease
  proportion of tumor macrophages in CD45.2+ cells: rising trend
m-MDSC
  macrophages after GMCSF stimulus differentiation of splenic m-MDSC: more macrophages
[6]
  expression of SIRPα on macrophages: decreased
CD47
  expression of CD47 on tumor cells: increased obviously
B16 cells [7]
  survival time of tumor-bearing nude mice: significantly prolonged
